Reference: patent US20070082903A1, “Remedy for rheumatoid arthritis” (priority 2003, published 2007)

Key:
[1] = test system: mice with collagen arthritis; experiment: antiarthritic effect in mice with collagen arthritis; format: in vivo; details: considered on the basis of the rat adjuvant arthritis and mouse collagen arthritis results
Procedure: On the other hand, it is known that 3-[(1S)-1-(2-fluorobiphenyl-4-yl)ethyl]-5-{[amino(morpholin-4-yl)methylene]amino}isoxazole (hereinafter referred to also as “compound (I)” or “SMP-114”) is useful as, for example, an excellent medicament for treating autoimmune diseases, inflammatory diseases and the like.
It was 5 mg/kg (once-a-day oral administration) in the case of mice with collagen arthritis (F. Nishikaku, “Annals of the Rheumatic Diseases”, vol. 61 supplement 1, p. 194 (2002)).

[2] = test system: patients with rheumatoid arthritis; experiment: administration to patients with rheumatoid arthritis, ACR criterion evaluation at 16 weeks; format: in vivo, human; details: for improvement rate: SF-36 mental scale / improvement rate: SF-36 physical scale / improvement rate: erythrocyte sedimentation rate / improvement rate: patient's self-assessed physical functions / improvement rate: reduction of swollen joint count / improvement rate: reduction of tender joint count / improvement rate: patient's assessment of pain / improvement rate: patient's global assessment of disease activity / improvement rate: physician's global assessment of disease activity / improvement rate: CRP: 16 weeks vs initial value; for improvement rate: patient's assessment of pain / improvement rate: patient's global assessment of disease activity / improvement rate: physician's global assessment of disease activity: VAS; for improvement rate: CRP: in % (unit assumed)
From the text: When 20% or more improvement is observed in the items 1) and 2) and 20% or more improvement is observed in at least three of the five items 3) to 7), the therapeutic effect is rated as “20% improvement on the criterion established by the American College of Rheumatology” (20% improvement on the ACR criterion). • 1) Reduction of tender joint count. • 2) Reduction of swollen joint count. • 3) Patient's global assessment of disease activity. • 4) Physician's global assessment of disease activity. • 5) Patient's assessment of pain. • 6) Patient's self-assessed physical functions. • 7) CRP or erythrocyte sedimentation rate.
Similarly, when 50% or more improvement is observed in the items 1) and 2) and 50% or more improvement is observed in at least three of the five items 3) to 7), the therapeutic effect is rated as “50% improvement on the criterion established by the American College of Rheumatology” (50% improvement on the ACR criterion).
SMP-114 was orally administered once a day after a meal to patients with rheumatoid arthritis who had been treated with 1 to 5 DMARDs other than SMP-114 (to whom these DMARDs seemed to be non-administrable because of their side effects, or for whom these DMARDs seemed to be ineffective or insufficiently effective). As to the dose, a placebo, 40 mg/day, 80 mg/day and 120 mg/day were employed (about 50 cases per group). […] SMP-114 was continuously administered to patients in whom the standard had been reached, until the 24th week while keeping the test blind. Sixteen weeks after the start of the administration, the placebo group, 40 mg/day group, 80 mg/day group and 120 mg/day group were compared with respect to the proportion of patients satisfying the requirement “20% improvement on the criterion established by the American College of Rheumatology”, whereby the efficacy of the SMP-114 was evaluated (in the present example, the following ratings were given on a visual analogue scale (VAS): 3) a patient's global assessment of disease activity, 4) a physician's global assessment of disease activity, and 5) a patient's assessment of pain, on the ACR criterion.).
When the following improvements are observed on the above-mentioned criterion of improvement established by the American College of Rheumatology, it is judged that “50% improvement on the criterion established by the American College of Rheumatology” (50% improvement on the ACR criterion) has been achieved: 50% or more improvement is observed in the items 1) and 2) and 50% or more improvement is observed in at least three of the five items 3) to 7). The efficacy of SMP-114 may be evaluated on the basis of the proportion of patients satisfying the requirement “50% improvement on the criterion established by the American College of Rheumatology”.
The efficacy of SMP-114 may be evaluated on the basis of improvement rates of the above-mentioned rating items on the criterion established by the American College of Rheumatology and QOL measure (SF-36) (Ware, J E. & Sherbourne C D., “The MOS 36-Item Short-Form Health Survey (SF-36); 1. Conceptual 10 Framework and Item Selection.”, Med Care 1981; 18:806). The improvement rates may be expressed as the rates of change calculated on the basis of the difference between values obtained 16 weeks after the start of the administration and initial values obtained before the start of the administration.
Stratification analysis was carried out by employing as an indication the history of treatment with disease modifying antirheumatic drugs (DMARDs) other than SMP-114, i.e., the number of the DMARDs other than SMP-114 which had been used. There are shown below the results of the analysis carried out by dividing patients into patients with rheumatoid arthritis who had been treated with one or two DMARDs other than SMP-114 (group A) and patients with rheumatoid arthritis who had been treated with 3 to 5 DMARDs other than SMP-114 (group B). […]

[3] = test system: rats with adjuvant arthritis; details: cited from earlier work
[4] = 40 mg/day, 16 weeks, erythrocyte sedimentation rate used as item 7)
[5] = 80 mg/day, 16 weeks, erythrocyte sedimentation rate used as item 7)
[6] = 120 mg/day, 16 weeks, erythrocyte sedimentation rate used as item 7)
[7] = total active groups, patient's assessment of pain (VAS) < 67
[8] = total active groups, patient's assessment of pain (VAS) ≧ 67
[9] = total active groups, physician's global assessment (VAS) < 63
[10] = total active groups, physician's global assessment (VAS) ≧ 63

With C[C@@H](c1ccc(-c2ccccc2)c(F)c1)c1cc(/N=C(/N)N2CCOCC2)on1 [SMP-114, 3-[(1S)-1-(2-fluorobiphenyl-4-yl)ethyl]-5-{[amino(morpholin-4-yl)methylene]amino}isoxazole] the “dose at which SMP-114 exhibits its efficacy” value [1] was ≥ 5 mg/kg, the “improvement rate: SF-36 mental scale” value ([2]; 40 mg/day) was 43.7% and the “improvement rate: SF-36 physical scale” value ([2]; 40 mg/day) was 33.3%. For the same compound, the “improvement rate: erythrocyte sedimentation rate” value ([2]; 40 mg/day) was 3.2%, the “improvement rate: patient's self-assessed physical functions” value ([2]; 40 mg/day) was 4.3% and the “improvement rate: reduction of swollen joint count” value ([2]; 40 mg/day) was 22.3%. For the same compound, the “improvement rate: reduction of tender joint count” value ([2]; 40 mg/day) was 16.0%, the “improvement rate: patient's assessment of pain” value (“improvement rate … of pain” for short) ([2]; 40 mg/day) was 17.1% and the “improvement rate: patient's global assessment of disease activity” value ([2]; 40 mg/day) was 19.3%. The “improvement rate: physician's global assessment of disease activity” value ([2]; 40 mg/day) was 12.7%, the “improvement rate: CRP” value ([2]; 40 mg/day) was −12.3 and the ACR20 improvement rate ([2]; 40 mg/day, 16 weeks, CRP used as item 7)) was 38.2%. The ACR20 improvement rate [2, 4] was 38.2%, the ACR50 improvement rate [2, 4] was 10.9% and the “Number of ACR50 responders” value ([2]; 40 mg/day, 55 patients) was 6. The “Number of ACR20 responders” value ([2]; 40 mg/day, 55 patients, CRP used) was 21, the “Number of ACR20 responders” value ([2]; 40 mg/day, 55 patients, erythrocyte sedimentation rate used) was 21 and the “improvement rate: SF-36 mental scale” value ([2]; 80 mg/day) was 46.1%. For the same compound, the “improvement rate: SF-36 physical scale” value ([2]; 80 mg/day) was 28.8%, the “improvement rate: erythrocyte sedimentation rate” value ([2]; 80 mg/day) was 4.0% and the “improvement rate: patient's self-assessed physical functions” value ([2]; 80 mg/day) was 10.6%. The “improvement rate: reduction of swollen joint count” value ([2]; 80 mg/day) was 18.7%, the “improvement rate: reduction of tender joint count” value ([2]; 80 mg/day) was 27.6% and the “improvement rate … of pain” value ([2]; 80 mg/day) was 16.5%. For the same compound, the “improvement rate: patient's global assessment of disease activity” value ([2]; 80 mg/day) was 20.5%, the “improvement rate: physician's global assessment of disease activity” value ([2]; 80 mg/day) was 21.5% and the “improvement rate: CRP” value ([2]; 80 mg/day) was −26.4. The ACR20 improvement rate ([2]; 80 mg/day, 16 weeks, CRP used as item 7)) was 34.5%, the ACR20 improvement rate [2, 5] was 36.4% and the ACR50 improvement rate [2, 5] was 10.9%. The “Number of ACR50 responders” value ([2]; 80 mg/day, 55 patients) was 6, the “Number of ACR20 responders” value ([2]; 80 mg/day, 55 patients, CRP used) was 19 and the “Number of ACR20 responders” value ([2]; 80 mg/day, 55 patients, erythrocyte sedimentation rate used) was 20. For the same compound, the “improvement rate: SF-36 mental scale” value ([2]; 120 mg/day) was 44.8%, the “improvement rate: SF-36 physical scale” value ([2]; 120 mg/day) was 30.2% and the “improvement rate: erythrocyte sedimentation rate” value ([2]; 120 mg/day) was −7.5%. The “improvement rate: patient's self-assessed physical functions” value ([2]; 120 mg/day) was −8.7%, the “improvement rate: reduction of swollen joint count” value ([2]; 120 mg/day) was 19.7% and the “improvement rate: reduction of tender joint count” value ([2]; 120 mg/day) was 22.7%. The “improvement rate … of pain” value ([2]; 120 mg/day) was 17.1%, the “improvement rate: patient's global assessment of disease activity” value ([2]; 120 mg/day) was 14.2% and the “improvement rate: physician's global assessment of disease activity” value ([2]; 120 mg/day) was 24.1%. The “improvement rate: CRP” value ([2]; 120 mg/day) was −98.6, the ACR20 improvement rate ([2]; 120 mg/day, 16 weeks, CRP used as item 7)) was 37.0% and the ACR20 improvement rate [2, 6] was 37.0%. The ACR50 improvement rate [2, 6] was 13.0%, the “Number of ACR50 responders” value ([2]; 120 mg/day, 54 patients) was 7 and the “Number of ACR20 responders” value ([2]; 120 mg/day, 54 patients, CRP used) was 20. The “Number of ACR20 responders” value ([2]; 120 mg/day, 54 patients, erythrocyte sedimentation rate used) was 20, the ACR20 improvement rate ([2]; total active groups (40, 80, 120 mg/day), Group A, DMARDs treatment history = 1-2 drugs) was 44% and the ACR20 improvement rate ([2]; total active groups (40, 80, 120 mg/day), Group B, DMARDs treatment history = 3-5 drugs) was 32%. For the same compound, the “ACR20 responders / cases” value ([2]; total active groups, Group A, DMARDs treatment history = 1-2 drugs) was 32/72, the “ACR20 responders / cases” value ([2]; total active groups, Group B, DMARDs treatment history = 3-5 drugs) was 29/92 and the ACR20 improvement rate [2, 7] was 50%. For the same compound, the “ACR20 responders / cases” value [2, 7] was 36/72, the ACR20 improvement rate [2, 8] was 27% and the “ACR20 responders / cases” value [2, 8] was 25/92. For the same compound, the ACR20 improvement rate [2, 9] was 42%, the “ACR20 responders / cases” value [2, 9] was 31/74 and the ACR20 improvement rate [2, 10] was 33%. For the same compound, the “ACR20 responders / cases” value [2, 10] was 30/90, the “minimum effective amount for antiarthritic effect” value ([3]; once-a-day oral administration) was 2.5 mg/kg and the antiarthritic effect ([3]; rats with adjuvant arthritis) was “antiarthritic effect”.
